Measurements reported in patent US12023390B2, “Isomerically pure 18F-labelled tetrahydrofolates” (MERCK PATENT GMBH, priority 2017, dated 2024).
Where “and” joins values, the source holds several entries; their conditions need not be identical. Equal entries are not always repeated. Where two headings read alike, the source gives them in different places. Values belong to the molecule of their own block, whether it stands above or below them.

What was measured:
[1] = Metabolite studies / in vivo stability (radio-UPLC of blood plasma, liver, urine); parameters: species or system mice
Procedure: (§1) In order to investigate FR-specific cell uptake and internalization, cell uptake and internalization of 6R-[^18F]1 and 6S-[^18F]1 were carried out using FR-positive KB cells. Cell uptake increased constantly over time for both diastereoisomers resulting in an uptake of about 60% (calculated per 0.3 mg of protein) of total added radioactivity after 3 h of incubation at 37° C. (FIG. 22).
The folate radiotracer 6S/6R-[^18F]5 (1:1 ratio, 53.7-52.3 MBq; 0.62-1.15 nmol) were intravenously injected into mice in order to determine the in vivo stability of the tracers. […] Ice-cold methanol containing 10 mg/mL 2-mercaptoethanol and 0.025% (v/v) ammonium hydroxide was added to the blood plasma, homogenized liver and urine in order to precipitate the proteins.^6 After centrifugation, the supernatants of the blood plasma, liver and urine samples were analyzed by radio-UPLC (FIG. 4).

[2] = target: T1, D4 (FR-β) (Homo sapiens, UniProt P14207); assay: Cell uptake and internalization in FR-β transfected CHO cells (D4); assay type: cell-based; settings: for uptake into D4 cells (in words): D4 (FR-β) cells; for internalized fraction / uptake: D4 cells
T1 construct: expressed in transfected cells; host or cells: CHO cells (D4)
T1 sequence (P14207 17-230): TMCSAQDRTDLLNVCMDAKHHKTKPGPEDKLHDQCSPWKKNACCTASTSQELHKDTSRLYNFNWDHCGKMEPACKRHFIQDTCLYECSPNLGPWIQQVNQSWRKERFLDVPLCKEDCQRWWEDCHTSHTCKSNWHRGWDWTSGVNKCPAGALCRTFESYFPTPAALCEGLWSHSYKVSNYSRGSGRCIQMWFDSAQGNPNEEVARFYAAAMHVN
Procedure: (§2) The uptake and internalization of the oxidized (^18F-AzaFol) and reduced ^18F-folates (6S-isomer and 6R-isomer of ^18F-5-Me-Aza-THF) in D4 and RT16 cells which express the FR-α and FR-β, […] was studied. Both cell lines were kindly provided by Larry Matherly Wayne State University, Detroit, U.S.; Golani et al., J Med Chem, 2016, 59, 7856.
When using D4 cells that express the FR-β, the uptake of ^18F-AzaFol and the 6S-isomer of the reduced radiotracer reached approximately 70% after 1 h incubation and 80% after 3 h incubation. The internalized fraction of ^18F-AzaFol and the 6S-isomer of the reduced version was 20% and 12%, respectively, after 1 h incubation. These numbers increased slightly when the incubation time was extended to 3 h. […] No change was observed after additional two hours of incubation.

[3] = target: T2, RT16 (FR-α) (Homo sapiens, UniProt P15328); assay: Cell uptake and internalization in FR-α transfected CHO cells (RT16); assay type: cell-based
T2 construct: expressed in transfected cells; host or cells: CHO cells (RT16)
T2 sequence (P15328 25-234): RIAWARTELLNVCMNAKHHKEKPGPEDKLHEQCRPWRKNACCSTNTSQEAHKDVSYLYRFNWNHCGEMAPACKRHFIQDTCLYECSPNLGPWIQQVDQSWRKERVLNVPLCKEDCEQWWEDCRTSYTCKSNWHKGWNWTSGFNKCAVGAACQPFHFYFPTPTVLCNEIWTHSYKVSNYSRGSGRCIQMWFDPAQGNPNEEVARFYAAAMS
Procedure: as §2
The internalized fraction of the radiotracers reached 8-10% after 1 h and increased slightly up to 9-12% after 3 h incubation.

[4] = target: T3, FR-α (Homo sapiens, UniProt P15328); assay: Displacement assay with [^3H]folic acid using KB cells; assay type: binding; settings: for fold lower affinity to the FR-α compared to the oxidized form: versus 3′-aza-2′-fluorofolic acid
T3 construct: endogenous in cells; host or cells: KB cells
T3 sequence (P15328 25-234): as above

[5] = test system: FR-positive KB cells; assay: Cell uptake and internalization using FR-positive KB cells; assay type: cell-based
Procedure: as §1

[6] = test system: KB tumor-bearing mice; assay: Biodistribution studies in KB tumor-bearing mice
[7] = test system: KB tumor xenografts
[8] = Distribution coefficient (log D7.4), shake flask method; assay type: physicochemical; settings: n-octanol / phosphate buffer pH 7.4, room temperature
[9] = KB cells, displacement of [^3H]folic acid, n = 3
[10] = KB tumor-bearing mice, 30 min p.i.
[11] = KB tumor-bearing mice, 30 min p.i., ratio
[12] = KB tumor-bearing mice, 60 min p.i.
[13] = KB tumor-bearing mice, 60 min p.i. & Folic Acid (100 μg 10 min prior)
[14] = KB tumor-bearing mice, 60 min p.i., ratio
[15] = KB tumor-bearing mice, 90 min p.i.
[16] = KB tumor-bearing mice, 90 min p.i., ratio
[17] = KB tumor-bearing mice, 90 min p.i., listed as 6S-form
[18] = KB tumor-bearing mice, 90 min p.i., listed as 6S-isomer

Molecule: CN1c2c(nc(N)[nH]c2=O)NC[C@H]1CNc1ccc(C(=O)N[C@@H](CCC(=O)O)C(=O)O)cc1 [Compound 6R-5-MTHF, 6R-5-MTHF, reference compound]
IC50 [4, 9]: 25.8 ± 5.8 nM

Molecule: CN1c2c(nc(N)[nH]c2=O)NC[C@H]1CNc1ccc(C(=O)N[C@@H](CCC(=O)O)C(=O)O)c(F)n1 [Compound 6S-1, 6S-3′-Aza-2′-Fluoro-5-Methyltetrahydrofolate]
IC50 [4]: 23.8 ± 4 nM
fold lower affinity to the FR-α compared to the oxidized form [4]: about 17 fold

Molecule: CN1c2c([nH]c(N)nc2=O)NC[C@@H]1CNc1ccc(C(=O)N[C@@H](CCC(=O)O)C(=O)O)cc1 [Compound 6S-5-MTHF, 6S-5-MTHF, reference compound]
IC50 [4, 9]: 20.6 ± 0.4 nM

Molecule: CN1c2c(nc(N)[nH]c2=O)NCC1CNc1ccc(C(=O)NC(CCC(=O)O)C(=O)O)c(F)n1 (stereo not drawn) [Compound 6R-1, 6R-3′-Aza-2′-Fluoro-5-Methyltetrahydrofolate]
IC50 [4]: 27.1 ± 3.7 nM
fold lower affinity to the FR-α compared to the oxidized form [4]: about 17 fold

Molecule: Nc1nc2ncc(CNc3ccc(C(=O)N[C@@H](CCC(=O)O)C(=O)O)c(F)n3)nc2c(=O)[nH]1 [3′-aza-2′-[^18F]fluorofolic acid, reference compound]
IC50 [4, 9]: 1.4 ± 0.5 nM

More lines, main results first:

uptake into D4 cells (in words) [2]: significant uptake
internalized fraction ([2]; 1 h incubation): 20%
uptake ([2]; 1 h incubation): approximately 70%
uptake ([2]; 3 h incubation): ~80%
uptake into RT16 cells (in words) [3]: significant uptake
Molecule: Nc1nc2ncc(CNc3ccc(C(=O)N[C@@H](CCC(=O)O)C(=O)O)c([18F])n3)nc2c(=O)[nH]1 [3′-aza-2′-[^18F]fluorofolic acid, reference compound]
in vivo stability (radiometabolites) ([1]; comparison tracer): radiometabolites in the liver were detected

in vivo stability ([1]; samples taken p.i.): Only intact parent compounds were found
uptake into D4 cells (in words) [2]: significant uptake
internalized fraction ([2]; 1 h incubation): 12%
uptake ([2]; 1 h incubation): approximately 70%
uptake ([2]; 3 h incubation): ~80%
Biodistribution: Blood [6, 10]: 1.52 ± 0.31 % IA/g
Biodistribution: Bone [6, 10]: 1.70 ± 0.13 % IA/g
Biodistribution: Feaces [6, 10]: 3.71 ± 2.34 % IA/g
Biodistribution: Gall Bladder [6, 10]: 20.0 ± 9.00 % IA/g
Biodistribution: Heart [6, 10]: 2.02 ± 0.22 % IA/g
Biodistribution: Intestines [6, 10]: 2.61 ± 0.65 % IA/g
Biodistribution: KB Tumor [6, 10]: 11.13±0.90 % IA/g and 11.1 ± 0.90 % IA/g
Biodistribution: Kidneys [6, 10]: 42.5 ± 2.73 % IA/g
Biodistribution: Liver [6, 10]: 8.10 ± 1.16 % IA/g
Biodistribution: Lung [6, 10]: 2.31 ± 0.42 % IA/g
Biodistribution: Muscle [6, 10]: 1.36 ± 0.25 % IA/g
Biodistribution: Salivary glands [6, 10]: 13.8 ± 2.06 % IA/g
Biodistribution: Spleen [6, 10]: 1.90 ± 0.34 % IA/g
Biodistribution: Stomach [6, 10]: 2.54 ± 0.56 % IA/g
Tu-to-blood [6, 11]: 7.41 ± 0.96
Tu-to-liver [6, 11]: 1.38 ± 0.16
Biodistribution: Kidneys ([6]; KB tumor-bearing mice, 30 min p.i., listed as 6S-form): 42.5±2.73 % IA/g
Biodistribution: Liver ([6]; KB tumor-bearing mice, 30 min p.i., listed as 6S-tracer): 8.10±1.16 % IA/g
Biodistribution: Blood [6, 12]: 1.26 ± 0.08 % IA/g
Biodistribution: Bone [6, 12]: 1.38 ± 0.14 % IA/g
Biodistribution: Feaces [6, 12]: 4.85 ± 1.95 % IA/g
Biodistribution: Gall Bladder [6, 12]: 16.6 ± 8.91 % IA/g
Biodistribution: Heart [6, 12]: 1.53 ± 0.15 % IA/g
Biodistribution: Intestines [6, 12]: 2.58 ± 0.42 % IA/g
Biodistribution: KB Tumor [6, 12]: 14.2 ± 1.91 % IA/g
Biodistribution: Kidneys [6, 12]: 37.5 ± 3.61 % IA/g
Biodistribution: Liver [6, 12]: 6.28 ± 0.66 % IA/g
Biodistribution: Lung [6, 12]: 2.04 ± 0.09 % IA/g
Biodistribution: Muscle [6, 12]: 1.29 ± 0.14 % IA/g
Biodistribution: Salivary glands [6, 12]: 13.8 ± 1.28 % IA/g
Biodistribution: Spleen [6, 12]: 1.57 ± 0.16 % IA/g
Biodistribution: Stomach [6, 12]: 1.84 ± 0.33 % IA/g
Biodistribution: Blood [6, 13]: 1.09 ± 0.28 % IA/g
Biodistribution: Bone [6, 13]: 0.49 ± 0.12 % IA/g
Biodistribution: Feaces [6, 13]: 8.42 ± 2.10 % IA/g
Biodistribution: Gall Bladder [6, 13]: 5.87 ± 0.45 % IA/g
Biodistribution: Heart [6, 13]: 0.50 ± 0.13 % IA/g
Biodistribution: Intestines [6, 13]: 4.34 ± 0.93 % IA/g
Biodistribution: KB Tumor [6, 13]: 2.11 ± 0.38 % IA/g
Biodistribution: Kidneys [6, 13]: 2.28 ± 0.95 % IA/g
Biodistribution: Liver [6, 13]: 4.76 ± 0.87 % IA/g
Biodistribution: Lung [6, 13]: 0.84 ± 0.20 % IA/g
Biodistribution: Muscle [6, 13]: 0.26 ± 0.06 % IA/g
Biodistribution: Salivary glands [6, 13]: 0.89 ± 0.26 % IA/g
Biodistribution: Spleen [6, 13]: 0.90 ± 0.24 % IA/g
Biodistribution: Stomach [6, 13]: 0.73 ± 0.32 % IA/g
Tu-to-blood [6, 14]: 11.3 ± 1.13
Tu-to-kidney [6, 14]: 0.38 ± 0.04
Tu-to-liver [6, 14]: 1.87 ± 0.96
Biodistribution: Blood [6, 15]: 1.16 ± 0.20 % IA/g
Biodistribution: Bone [6, 15]: 1.49 ± 0.30 % IA/g
Biodistribution: Feaces [6, 15]: 4.57 ± 1.98 % IA/g
Biodistribution: Gall Bladder [6, 15]: 11.4 ± 7.18 % IA/g
Biodistribution: Heart [6, 15]: 1.48 ± 0.17 % IA/g
Biodistribution: Intestines [6, 15]: 2.34 ± 0.39 % IA/g
Biodistribution: KB Tumor [6, 15]: 19.2 ± 4.16 % IA/g
Biodistribution: Kidneys [6, 15]: 42.3 ± 7.05 % IA/g
Biodistribution: Liver [6, 15]: 5.86 ± 1.11 % IA/g
Biodistribution: Lung [6, 15]: 2.08 ± 0.35 % IA/g
Biodistribution: Muscle [6, 15]: 1.24 ± 0.14 % IA/g
Biodistribution: Salivary glands [6, 15]: 21.4 ± 4.59 % IA/g
Biodistribution: Spleen [6, 15]: 1.82 ± 0.49 % IA/g
Biodistribution: Stomach [6, 15]: 1.69 ± 0.33 % IA/g
Tu-to-blood [6, 16]: 16.5 ± 0.59
Tu-to-liver [6, 16]: 3.30 ± 0.59
Biodistribution: Kidneys [6, 17]: 42.3±7.05 % IA/g
Biodistribution: Liver [6, 17]: 5.86±1.11 % IA/g
Biodistribution: Salivary glands [6, 17]: 21.4±4.59 % IA/g
Biodistribution: KB Tumor [6, 18]: 19.2±4.16 % IA/g
Biodistribution: Spleen [6, 18]: 1.82±0.49 % IA/g
Biodistribution: Liver ([6]; KB tumor-bearing mice, 90 min p.i., listed as S-isomer): 5.86±1.11 % IA/g
Specificity of tumor binding ([6]; blocking by pre-injection of folic acid): 89%
factor of increase of tumor-to-kidney ratio ([6]; from 30 min p.i. to 90 min p.i.): 1.7
uptake into RT16 cells (in words) [3]: significant uptake
logD7.4 [8]: −4.6 ± 0.1
Molecule: 6S-3′-aza-2′-[^18F]fluoro-5-MTHF [6S-[^18F]1]
internalized activity ([5]; 37° C.): ~16%
cell uptake (% of total added radioactivity) ([5]; 3 h incubation at 37° C., calculated per 0.3 mg of protein): about 60%
PET/CT: KB tumor xenograft uptake ([7]; already 1 h p.i.): High KB tumor xenograft uptake
PET/CT: blocking studies, uptake in all FR-positive tissues ([7]; folic acid injected 10 minutes prior to radiotracer): remarkably reduced uptake
